Measured values published in BigSolDB 2.1.

CC(=O)O[C@H]1NC(=O)[C@@H]1[C@@H](C)O[Si](C)(C)C(C)(C)C
solubility (mole fraction)
Settings	293.15 K	298.15 K	303.15 K	308.15 K	313.15 K	318.15 K	323.15 K	328.15 K	333.15 K
in THF	0.238	0.242	0.251	0.264	0.278	0.3	0.323	0.342	0.368
in acetone	0.147	0.166	0.186	0.203	0.218	0.233	0.244	0.254	0.259
in acetonitrile	0.0493	0.0629	0.0792	0.0963	0.114	0.132	0.15	0.166	0.184
in chloroform	0.258	0.266	0.276	0.291	0.308	0.325	0.347	0.371	0.403
in cyclohexane	0.0028	0.00408	0.00582	0.00838	0.0116	0.0163	0.0223	0.0306	0.0413
in ethanol	0.0492	0.0601	0.072	0.0859	0.104	0.121	0.145	0.17	0.2
in ethyl acetate	0.159	0.179	0.198	0.216	0.24	0.264	0.294	0.326	0.356
in methanol	0.0593	0.069	0.0809	0.0959	0.113	0.134	0.161	0.193	0.233
in n-butyl acetate	0.13	0.145	0.163	0.18	0.199	0.221	0.251	0.288	0.326
in n-hexane	0.00287	0.00411	0.00577	0.00813	0.0116	0.0161	0.022	0.0305	0.0422
in toluene	0.0796	0.096	0.116	0.141	0.163	0.186	0.209	0.238	0.265
